Data on 9 compounds can be found in publication PMC6713120, “Kinetic and thermodynamic characterisation of HIV-protease inhibitors against E35D↑G↑S mutant in the South African HIV-1 subtype C protease” (Journal of Enzyme Inhibition and Medicinal Chemistry, 2019).

Molecules are shown by their SMILES. Several values for one entry are separate records, joined by “and”; a condition that tells them apart may be missing. Identical values can stand only once.

Experiment [1] addresses wild type C-SA HIV protease (Human immunodeficiency virus type 1 group M subtype C, UniProt Q994Q3). As to the kind of experiment: Inhibition of chromogenic substrate hydrolysis by wild type C-SA HIV protease. In kind it is biochemical, HIV-1 subtype C. Conditions: for IC50: wild type C-SA protease, n = 3, read-out: WT IC50; for Ki / ΔG (Gibbs free binding energy): wild type; for Ki: 37 °C, pH 5.0; for ΔG (Gibbs free binding energy): calculated from Ki, ΔG=RTlnKi. On the procedure: (§1) Enzymatic activity of the HIV-1 C-SA and mutant (E35D↑G↑S) protease was measured by following the hydrolysis of the HIV-PR chromogenic substrate, Lys-Ala-Arg-Val-Nle-nPhe-Glu-Ala-Nle-NH2 as reported before[13]^,[15]. The substrate resembles the conserved protease cleavage site, KARVL/AEAM[8] between the capsid protein and the […] in the Gag-polyprotein precursor. Hydrolysis of the HIV chromogenic substrate was characterised by the decrease in absorbance at 300 nm. Catalytic properties such as the Km, kcat, and kcat/Km of the proteases were determined. All catalytic activity assays were performed using a Jasco V-630 spectrophotometer (Jasco International co., LTD, Japan).
(§2) This was done by monitoring the rate of chromogenic substrate hydrolysis using 2 µM protease in 50.0 mM sodium acetate, 0.1 M NaCl, pH 5.0, and (0–250 µM) substrate in increasing amounts of inhibitor (0–10 nM).
(§3) The Ki values were estimated using a competitive inhibition equation (Equation 1) according to Williams et al..

The target in experiment [2] is T1, E35D↑G↑S mutant HIV-1 subtype C protease (Human immunodeficiency virus type 1 group M subtype C, UniProt Q994Q3, D118E/E93D/I94G/INS93GS). As to the kind of experiment: biochemical. Conditions: for IC50: E35D↑G↑S IC50, mutant E35D↑G↑S, n = 3; for Ki ratio / reduced activity in comparison to the wildtype: mutant versus wild type; for ΔΔG: mutant-wild type; for log vitality: v = (Ki × Kcat/Km)MUT/(Ki × Kcat/Km)WT, wild type as reference; for ΔG (Gibbs free binding energy): calculated from Ki, ΔG=RTlnKi. The procedure:
as §1, §2
This is done by introducing the term “vitality” which is a measure of resistance. Vitality, v, is defined as v = (Ki × Kcat/Km)MUT/(Ki × Kcat/Km)WT, and predicts the therapeutic effect of a given protease inhibitor.
as §3

Experiment [3] addresses T1, E35D↑G↑S mutant HIV-1 subtype C protease. To be noted: mutant-wild type. The procedure: Quenching experiments were performed according to the method reported by Maseko et al.[15]. Spectrofluorimetry was used to determine structural changes induced in HIV protease by the interaction of the inhibitors with the purified enzymes using Jasco V-630 spectrofluorimeter (Jasco International co., LTD, Japan). The excitation wavelength was fixed at 295 nm, the wavelength at which tryptophan absorbs and the emission wavelength measured was at […]. The change in fluorescence of a solution was monitored over 10 min, as increasing concentrations of inhibitors were added to a reaction mixture of HIV protease in 50 mM sodium acetate, 1 M NaCl, pH 5 in a final volume of […]. All fluorescence quenching experiments were performed at 4 different temperatures (293 K, 298 K, 303 K, 310 K). The following equations are applicable. (1) F0/F=1+KsvQ (2) lnKsv=−(ΔH/RT)+(ΔS/R) where F0 and F are the florescence in the absence and presence of quencher, Ksv is the Stern Volmer constant, Q is the quencher (drug), ΔH is the enthalpy, ΔS is entropy, R is the gas constant and T is the experimental temperature. The equation is developed from Van’t Hoff relationship. (3) ΔG=RTlnKi
Thermodynamic parameters were calculated from the Stern Volmer and Van’t Hoff plots (Figures S3 and S4). From these plots, ΔH and ΔS values for each drug were calculated. ΔG values were calculated from the Ki values from Equation (3).

As for `CC(C)(C)NC(=O)[C@@H]1C[C@@H]2CCCC[C@@H]2CN1C[C@@H](O)[C@H](Cc1ccccc1)NC(=O)[C@H](CC(N)=O)NC(=O)c1ccc2ccccc2n1` [SQV, Saquinavir], the IC50 in experiment [1] is 0.77 ± 0.05 nM. For the same compound, in experiment [2], the half-maximal inhibitory concentration (IC50) stood at 114 ± 1.2 nM, the Ki ratio came to 215 ± 2.0, the ΔΔG was 3.3 ± 0.5 kcal/mol and the log vitality entry is recorded as “around two”. Also, in experiment [3], the ΔΔH is on record as 2.9 ± 0.1 and the “−TΔΔS” value stood at 0.4 ± 0.0.

Turning to `CC(C)CN(C[C@@H](O)[C@H](Cc1ccccc1)NC(=O)O[C@H]1CCOC1)S(=O)(=O)c1ccc(N)cc1` [APV, Amprenavir], the IC50 in experiment [1] stood at 0.81 ± 0.04 nM. Besides, in experiment [2], the IC50 amounted to 4.1 ± 0.05 nM; the Ki ratio turned out to be 4 ± 0.1; the “reduced activity in comparison to the wildtype” value is given as 4 folds; the ΔΔG was 0.80 kcal/mol and 0.80 ± 0.1 kcal/mol. For the same compound, the log vitality in experiment [2] was 0.36. Also, the “ΔG (Gibbs free binding energy)” value in experiment [2] (mutant E35D↑G↑S) is -13.12 kcal/mol. Besides, the “log Ki” value in experiment [2] (mutant E35D↑G↑S, logarithm of Ki in nM, 37 °C, pH 5.0) is recorded as “negative”. Also, in experiment [3], the ΔΔH was 12.9 ± 0.8 and the “−TΔΔS” value is 12.1 ± 0.2.

`CCC[C@@]1(CCc2ccccc2)CC(O)=C([C@H](CC)c2cccc(NS(=O)(=O)c3ccc(C(F)(F)F)cn3)c2)C(=O)O1` [TPV, Tipranavir]: in experiment [1], the IC50 was 1.55 ± 0.02 nM, the Ki was 0.513 nM and the “ΔG (Gibbs free binding energy)” value is -13.19 kcal/mol. Also, in experiment [2], the half-inhibitory concentration (IC50) was determined as 203 ± 2.6 nM, the Ki ratio was 292 ± 4.0, the ΔΔG amounted to 3.7 ± 0.1 kcal/mol and the log vitality result was “around two”. Besides, in experiment [3], the ΔΔH came out at 3.2 ± 0.2 and the “−TΔΔS” value is −7.1 ± 0.1.

Turning to `Cc1c(O)cccc1C(=O)N[C@@H](CSc1ccccc1)[C@H](O)CN1C[C@H]2CCCC[C@H]2C[C@H]1C(=O)NC(C)(C)C` [NFV, Nelfinavir], the IC50 in experiment [1] worked out at 1.99 ± 0.05 nM. Further, in experiment [2], the Ki was 174 nM, half-maximal inhibition (IC50) required 1401 ± 3 nM, the Ki ratio came out at 532 ± 2 and the ΔΔG is 4.1 ± 0.2 kcal/mol. Further, the log vitality entry in experiment [2] is on record as “around two”. Also, in experiment [3], the ΔΔH was 2.3 ± 0.0 and the “−TΔΔS” value is recorded as −1.8 ± 0.0.

As to `CC(C)CN(C[C@@H](O)[C@H](Cc1ccccc1)NC(=O)O[C@H]1CO[C@H]2OCC[C@H]21)S(=O)(=O)c1ccc(N)cc1` [DRV, Darunavir], the IC50 in experiment [1] is 1.07 ± 0.04 nM. Moreover, in experiment [2], half-maximal inhibition (IC50) required 154 ± 2 nM, the Ki ratio is reported as 560 ± 3.0, the ΔΔG is 3.9 ± 0.5 kcal/mol and the log vitality result was “around two”. For the same compound, in experiment [3], the ΔΔH is recorded as 2.1 ± 0.0 and the “−TΔΔS” value is given as −1.8 ± 0.1.

For `CC(C)(C)NC(=O)[C@@H]1CN(Cc2cccnc2)CCN1C[C@@H](O)C[C@@H](Cc1ccccc1)C(=O)N[C@H]1c2ccccc2C[C@H]1O` [IDV, Indinavir], in experiment [1], the IC50 was 3.44 ± 0.06 nM. Further, in experiment [2], inhibition was half-maximal at 33.6 ± 1 nM (IC50), the Ki ratio was determined as 20 ± 0.5, the ΔΔG was 1.9 ± 0.6 kcal/mol and the log vitality is recorded as around 1.00. Also, in experiment [3], the ΔΔH is on record as −0.1 ± 0.0 and the “−TΔΔS” value is on record as 1.8 ± 0.3.

With `COC(=O)N[C@H](C(=O)N[C@@H](Cc1ccccc1)[C@@H](O)CN(Cc1ccc(-c2ccccn2)cc1)NC(=O)[C@@H](NC(=O)OC)C(C)(C)C)C(C)(C)C` [ATV, Atazanavir], in experiment [1], the IC50 was 1.07 ± 0.08 nM, the Ki was 0.0776 nM and the “ΔG (Gibbs free binding energy)” value is -14.35 kcal/mol. In addition, in experiment [2], the Ki is 145 nM, the IC50 turned out to be 685 ± 3 nM, the Ki ratio was 1828 ± 2.0 and the ΔΔG was 4.6 ± 0.2 kcal/mol. Besides, in experiment [2], the log vitality result is given as “highest vitality value”. Also, in experiment [3], the ΔΔH turned out to be 3.1 ± 0.1 and the “−TΔΔS” value is on record as −1.5 ± 0.1.

In the case of `Cc1cccc(C)c1OCC(=O)N[C@@H](Cc1ccccc1)[C@@H](O)C[C@H](Cc1ccccc1)NC(=O)[C@H](C(C)C)N1CCCNC1=O` [LPV, Lopinavir], in experiment [1], the IC50 was 2.99 ± 0.01 nM. Besides, in experiment [2], the IC50 was 51.7 ± 0.8 nM, the Ki ratio turned out to be 12 ± 0.1, the ΔΔG is recorded as 1.6 ± 0.3 kcal/mol and the log vitality is listed as around 1.00. Besides, in experiment [3], the ΔΔH is recorded as −13.1 ± 0.9 and the “−TΔΔS” value was found to be 14.7 ± 0.1.

`CC(C)c1nc(CN(C)C(=O)N[C@H](C(=O)N[C@@H](Cc2ccccc2)C[C@H](O)[C@H](Cc2ccccc2)NC(=O)OCc2cncs2)C(C)C)cs1` [RTV, Ritonavir]: in experiment [2] (mutant E35D↑G↑S), the “ΔG (Gibbs free binding energy)” value is -12.96 kcal/mol. Moreover, in experiment [2], the “reduced activity in comparison to the wildtype” value amounted to 5 folds; the ΔΔG was 0.93 kcal/mol and 0.9 ± 0.1 kcal/mol; the log vitality stood at 0.30. Moreover, in experiment [3], the ΔΔH stood at 6.8 ± 0.1 and the “−TΔΔS” value worked out at 5.8 ± 0.2.
